From patent US11447479B2, “Compounds active towards nuclear receptors” (NUEVOLUTION A/S, priority 2019, dated 2022)

Key:
[1] = test system: Collagen-induced arthritis; experiment: Collagen-Induced Arthritis (CIA) study; type: in vivo; conditions: 10 mpk po bid, male DBA/1J mice
Method: Collagen-Induced Arthritis (CIA) Study Collagen-induced arthritis is an animal model of rheumatoid arthritis used to evaluate the efficacy of test compounds. CIA was induced at Washington Biotechnology Inc. (Baltimore) in male DBA/1J mice (Jackson Laboratories) by subcutaneous injection at the base of the tail with 50 μl of a bovine collagen/complete Freund's adjuvant emulsion. After 21 days, the mice were further boosted by a further subcutaneous injection of 50 μl of a collagen/incomplete Freund's adjuvant emulsion. For treatment, compound or vehicle (2% DMSO, 10% HP—β-CD in MilliQ water) was given orally twice daily at various doses selected from 3, 10, 30 mg/kg, beginning at the day of CIA induction (Prophylactic setting), or after disease initiation (at day 27, therapeutic setting). Treatment lasted until day 41, and the animals were scored three times weekly. Each paw was scored and the sum of all four scores was recorded as the Arthritic Index (AI). The maximum possible AI was 16. 0=no visible effects of arthritis; 1=edema and/or erythema of one digit; 2=edema and/or erythema of 2 joints; 3=edema and/or erythema of more than 2 joints; 4=severe arthritis of the entire paw and digits including limb deformation and ankylosis of the joint. […] At 10 mpk po bid, H6-13-2 Arthritis Index (AI) decreased with 83% of the effect of the mouse aIL-17A antibody. […]

RORγ = target: T1, RORγ (Homo sapiens, UniProt P51449); experiment: RORγ Reporter Assay (Gal4); type: cell-based; conditions: HEK293 co-transfected with RORγ LBD-Gal4 and luciferase reporter, 24 h incubation, absolute IC50; read-out: IC50
T1 construct: Gal4 (galactose-responsive transcription factor); expressed in transfected cells; host or cells: HEK293
T1 sequence (P51449 269-508 limits assumed): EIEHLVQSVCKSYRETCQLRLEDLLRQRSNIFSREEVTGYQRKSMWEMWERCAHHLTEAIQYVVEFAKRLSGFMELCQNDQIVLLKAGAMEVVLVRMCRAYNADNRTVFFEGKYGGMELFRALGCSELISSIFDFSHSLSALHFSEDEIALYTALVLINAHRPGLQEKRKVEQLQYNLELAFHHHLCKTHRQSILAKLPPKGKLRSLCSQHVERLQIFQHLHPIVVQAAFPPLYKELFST
Method: RORγ Reporter Assay (Gal4)
The HEK293 cell line is co-transfected transiently with two plasmids, one with the RORγ ligand-binding domain fused to galactose-responsive transcription factor (Gal4), and the other with the luciferase reporter gene and Gal binding sites (UAS). This construction allows to determine the RORγ activity in a cellular system through the measurement of luminescence.
A suspension of RORγ reporter cells was dispensed into plates and cultured 2 h at 37° C. and 5% CO2. Media formulation consisted in DMEM/F-12 medium (Gibco) supplemented with 10% heat inactivated FBS (Sigma-Aldrich), non-essential aminoacids (Sigma-Aldrich), 2 mM Glutamax (Gibco) and 100 U/mF penicillin (Sigma-Aldrich). Dose-response curves with compounds were prepared in 100% DMSO and further diluted […] in culture medium. Compound solutions were added to the plate containing cells (final DMSO concentration of 0.1%) and incubated for 24 h at 37° C. and 5% CO2. Luciferase detection reagent was added to each well, and relative light units […] were quantified from each assay well using a plate reading luminometer.
Values of average RFU±S.D. were computed for all treatment sets, followed by the calculations of percent-reduction of RORγ activity in response to respective test compound. The following formula was used: activity=100*[1−[x test compound/average vehicle]where the theoretical minimum reduction (0% reduction).

Th17 cells = experiment: Th17 assay (IL-17 in supernatants of differentiating human naive CD4+ T cells, ELISA); type: cell-based; conditions: 168 h, Th17 differentiation for seven days with test compound, IL-17 levels in supernatants by ELISA
Method: Th17 Assay (Another Suitable Assay)
The following modifications were made to the manufacturer's protocol: 1) Incubation with Biotin-Antibody Cocktail and Anti-Biotin MicroBeads was prolonged to 30 minutes, and 2) Cells were washed with 40 mL of Miltenyi buffer. Differentiation of Th17 cells in anti-CD3 (BD Pharmingen, 5 μg/ml) coated 96-well plates (400,000 cells/well, 160 μl RPMI1640+10% Fetal Bovine Serum) containing 5 μg/ml anti-CD28 (BD Pharmingen), 10 ng/ml IL-2 (R&D Systems), 2.5 ng/ml TGFβ-1 (R&D Systems), 20 ng/ml IL-1β (R&D Systems), 20 ng/ml IL-6 (R&D Systems), 30 ng/ml IL-23 (R&D Systems), 2.5 μg/ml anti-IL-4 (R&D Systems) and 1 μg/ml anti-IFNγ (R&D Systems) and with test compound during the entire differentiation (or vehicle, 0.1% DMSO for control). Test compounds were tested in triplicates, diluted 1000-fold in medium (final DMSO concentration is 0.1%). Incubated for seven days at 37° C., 5% CO2, 95% humidity, and 2-fluoro-4′-[[4-(4-pyridinylmethyl)-1-piperazinyl]methyl]-α,α-bis(trifluoromethyl)-[1,1′-biphenyl]-4-methanol (SR2211 Calbiochem, Cat. No. 557353) was used as positive control. As negative control, cells were differentiated into Th0 using 5 μg/ml anti-CD28 (BD Pharmingen), 10 ng/ml IL-2 (R&D Systems), 2 μg/ml anti-IL4 (R&D Systems) and 2 μg/ml anti-IFNγ (R&D Systems) are negative control. IL-17 levels in supernatants were measured with ELISA (R&D Systems).

plasma IL-17A = experiment: In vivo IL-17A induction in anti-CD3 model in mice; conditions: oral gavage twice daily day 0 to day 3, plasma IL-17A by ELISA, C57BL/6JRj mice
Method: In Vivo IL-17A Induction in Anti-CD3 Model in Mice
Male C57BL/6JRj mice (7 week old) were purchased from Janvier Labs and housed at the animal facilities of Almirall throughout the study. Animals were allowed to condition for 5 days in their new environment at 22° C.±2° C., 55%±10% relative humidity and 12 h:12 h light:dark cycles. Animals were housed in polycarbonate cages, with free access to water and non-purified stock diet (2014 Teklad Global 14% Protein Rodent Maintenance Diet, Envigo) during the full course of the studies. Care of animals was undertaken in compliance with the European Committee Directive 2010/63/EU, and the Catalan and Spanish law. […]
Plasma levels of IL-17A were measured by ELISA (R&D Systems) according to the manufacturer's instruction. Results were calculated as the percentage of reduction of plasma IL-17A versus the difference between non-induced and anti-CD3e induced groups through the formula: inhibition=100*[1−[(x−mean non-induced)/(mean control vehicle−mean non-induced)]]. The IL-17A inhibition for each treatment can be expressed as the mean for each treatment group±S.E.M. Statistical analysis of data were conducted with one-way ANOVA followed by Dunnett's multiple comparisons test when appropriate. […]

IC50 (RORγ) [nM] | IC50 (Th17 cells) [nM] | SMILES | Arthritis Index (AI) decrease as % of the effect of the mouse aIL-17A antibody [1] [%] | Inhibition of IL-17A (%) at 3 mg/kg (plasma IL-17A) [%]
66 | 82 | NC(=O)CN1CCC(CNc2ncnc(N3CCOC[C@@H]3c3ccc(C(F)(F)F)cn3)c2F)C(F)(F)C1 (single isomer, unassigned) [Example H6-11-2, 2-((R*)-3,3-difluoro-4-(((5-fluoro-6-((S)-3-(5-(trifluoromethyl)pyridin-2-yl)morpholino)pyrimidin-4-yl)amino)methyl)piperidin-1-yl)acetamide] | 61 | 
54 | 93 | NC(=O)CN1CC[C@H](CNc2ncnc(N3CCOC[C@@H]3c3ccc(C(F)(F)F)cn3)c2F)[C@@H](F)C1 (single isomer, unassigned) [Example H6-13-2, 2-((3R*,4R*)-3-fluoro-4-(((5-fluoro-6-((S)-3-(5-(trifluoromethyl)pyridin-2-yl)morpholino)pyrimidin-4-yl)amino)methyl)piperidin-1-yl)acetamide] | 83 | 
26 |  | NC(=O)CN1CC[C@H](CNc2ncnc(N3CC(F)(F)C[C@@H]3c3ccc(C(F)(F)F)cc3)c2F)[C@@H](O)C1 (single isomer, unassigned) [Example H6-17-1, 2-((3R*,4R*)-4-(((6-((R)-4,4-difluoro-2-(4-(trifluoromethyl)phenyl)pyrrolidin-1-yl)-5-fluoropyrimidin-4-yl)amino)methyl)-3-hydroxypiperidin-1-yl)acetamide] |  | 67
